What was measured:
[1] = tested on: single combed White Leghorn hens; test: Egg parameters (specific gravity, total egg weight, shell weight); format: in vivo
Protocol: During the experiment, two birds were assigned to each cage (12"×18"). The hens were maintained in their cages for two weeks prior to the molt. They received a 17 hour light: 7 hour dark photoperiod throughout this phase of the experiment. During this time, the following parameters were measured:(a) body weight (weekly); (b) feed consumption (all hens received a common layer ration, and the feed consumed during this two week period was measured); (C) production records (daily); and (d), total egg weight, egg shell weight, and egg specific gravity (measured on three consecutive days each week). Serum samples were taken once, from 10 randomly selected hens from each treatment group, and saved for future study.
(§1) After the two week pre-molt adjustment period, the hens were randomly assigned to each of eight different groups. These treatment groups were as follows: (1) control, (2) forced molt, (3) chemical molt-injected, (4) vehicle control-injected, (5) chemical molt-microcapsules A, (6) vehicle control-microcapsules A, (7) chemical molt-microcapsules B, and (8) vehicle control-microcapsules B.
[D-Trp^6 ]LHRH was used as the LHRH receptor ligand for the chemical molt groups. The "chemical molt-injected" group received intramuscular (breast) injections of 25 micrograms/day of [D-Trp^6 ]LHRH for 10 consecutive days beginning on day 14. Alternate pectoral (breast) areas were injected each day. The "chemical molt-microcapsule" groups received a single intramuscular (breast) injection of microencapsulated [D-Trp^6 ]LHRH on day zero. This preparation of microcapsules provided a controlled release of 25 micrograms [D-Trp^6 ]LHRH per day for 15 consecutive days.
On day 14, the microcapsule injected groups received intramuscular injections of lactide/glycolide copolymer microcapsules which had [D-Trp^6 ]LHRH incorporated therein. The ligand-containing microcapsules administered the "Microcapsules A" group were prepared and supplied by Debiopharm (Lausanne, Switzerland). These microcapsules were prepared by a phase-separation process to produce a free-flowing powder of spherical particles consisting of [D-Trp^6 ]LHRH (2% wt/wt) distributed within a polymeric matrix of 53:47(mol %) poly(DL-lactide-co-glycolide) (98% wt/wt) with an inherent viscosity of 0.7 dl/g. The microcapsules were 50 micrometers or less in diameter. […] Photomicrographs of similar microcapsules are presented in T. W. Redding, et al., Proc. Natl. Acad. Sci. U.S.A., 81, 5845 (Sept. 1984).
The remaining hens were maintained for a three month production period, during which the following parameters were measured: a. body weight (weekly for the first month and then twice a month); b. feed consumption (measured weekly); c. egg production (measured daily); and d. egg weight, shell weight and specific gravity (measured for three consecutive days each week for the first month, and then three consecutive days every two weeks).

[2] = tested on: single combed White Leghorn hens; test: Induction of molt by LHRH receptor ligand; format: in vivo; conditions: all treated groups, 25 micrograms/day
Protocol: as §1
The hens then received a seven day pre-molt treatment of a 24 hour light, zero hour dark photoperiod. On day 14 of the experiment the photoperiod was then reduced to natural day length for all treatments. Feed was made available ad libitum for all groups except the forced molt group. The forced molt group was deprived of food, but not of water, until a 30% body weight loss occurred (10 days of fasting).
[D-Trp^6 ]LHRH was used as the LHRH receptor ligand for the chemical molt groups. The "chemical molt-injected" group received intramuscular (breast) injections of 25 micrograms/day of [D-Trp^6 ]LHRH for 10 consecutive days beginning on day 14. Alternate pectoral (breast) areas were injected each day. […]
Microcapsules were suspended in disposable syringes in vehicle containing 2% carboxymethyl cellulose and 1% "TWEEN 20" in water. After thoroughly mixing the suspension, aliquots calculated to have released a dose of 25 micrograms/day for 15 consecutive days were injected into the breast muscle of the hens. […]

[3] = Week 1 = days zero-2, before treatment
[4] = Week 2 = days 6-8, before treatment

Q: For [D-Trp^6 ]LHRH [D-Trp^6 --LHRH], which “EGG SHELL WEIGHT” value [1, 3] is on record?
A: 5.46 g

Q: What about the “EGG SPECIFIC GRAVITY” value [1, 3] of the same substance?
A: 1.079 (g/cm)^3

Q: What about the “TOTAL EGG WEIGHT” value [1, 3] of the same substance?
A: 66.04 g

Q: What about the “EGG SHELL WEIGHT” value [1, 4] of the same substance?
A: 5.82 g

Q: And the “EGG SPECIFIC GRAVITY” value [1, 4]?
A: 1.082 (g/cm)^3

Q: And the “TOTAL EGG WEIGHT” value [1, 4]?
A: 67.72 g

Q: What about the “EGG SHELL WEIGHT” value ([1]; Week 3 = days 40-42) of the same substance?
A: 5.15 g

Q: What about the “EGG SPECIFIC GRAVITY” value ([1]; Week 3 = days 40-42) of the same substance?
A: 1.075 (g/cm)^3

Q: And the “TOTAL EGG WEIGHT” value ([1]; Week 3 = days 40-42)?
A: 64.38 g

Q: What about the “EGG SHELL WEIGHT” value ([1]; Week 4 = days 47-49) of the same substance?
A: 5.61 g

Q: What about the “EGG SPECIFIC GRAVITY” value ([1]; Week 4 = days 47-49) of the same substance?
A: 1.079 (g/cm)^3

Q: What about the “TOTAL EGG WEIGHT” value ([1]; Week 4 = days 47-49) of the same substance?
A: 68.27 g

Q: What about the “EGG SHELL WEIGHT” value ([1]; Week 5 = days 54-56) of the same substance?
A: 5.79 g

Q: What about the “EGG SPECIFIC GRAVITY” value ([1]; Week 5 = days 54-56) of the same substance?
A: 1.079 (g/cm)^3

Q: What about the “TOTAL EGG WEIGHT” value ([1]; Week 5 = days 54-56) of the same substance?
A: 68.81 g

Q: And the “EGG SHELL WEIGHT” value ([1]; Week 6 = days 61-63)?
A: 5.65 g

Q: And the “EGG SPECIFIC GRAVITY” value ([1]; Week 6 = days 61-63)?
A: 1.080 (g/cm)^3

Q: What about the “TOTAL EGG WEIGHT” value ([1]; Week 6 = days 61-63) of the same substance?
A: 67.4 g

Q: And the “EGG SHELL WEIGHT” value ([1]; Week 7 = days 75-77)?
A: 5.59 g

Q: What about the “EGG SPECIFIC GRAVITY” value ([1]; Week 7 = days 75-77) of the same substance?
A: 1.079 (g/cm)^3

Q: And the “TOTAL EGG WEIGHT” value ([1]; Week 7 = days 75-77)?
A: 67.19 g

Q: And the “quality of eggs produced after the molt” value ([1]; compared with conventional Forced Molted Group)?
A: as good in quality as the eggs produced by the conventional Forced Molted Group

Q: And the induction of molt [2]?
A: induced to molt

From patent US4761398A, “Method of inducing birds to molt” (Embrex, Inc., priority 1986, dated 1988)
